# Data from ChEMBL document CHEMBL1144687, “Pim2 inhibitors from the Papua New Guinean plant Cupaniopsis macropetala” (J Nat Prod, 2008).
# Target: Serine/threonine-protein kinase pim-2 (Homo sapiens, UniProt Q9P1W9)
# Experiment: Inhibition of Pim2 kinase
# Sequence of Serine/threonine-protein kinase pim-2 (Q9P1W9 whole entry): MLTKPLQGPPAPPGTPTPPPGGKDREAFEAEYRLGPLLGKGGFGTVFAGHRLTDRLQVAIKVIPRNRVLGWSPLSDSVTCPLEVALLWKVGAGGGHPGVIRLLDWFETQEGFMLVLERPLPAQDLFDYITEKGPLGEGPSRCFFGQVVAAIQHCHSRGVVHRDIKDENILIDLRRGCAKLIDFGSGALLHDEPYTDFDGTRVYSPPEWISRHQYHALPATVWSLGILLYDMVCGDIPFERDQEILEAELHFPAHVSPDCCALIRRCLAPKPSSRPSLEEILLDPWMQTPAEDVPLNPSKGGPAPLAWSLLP
row,Compound,IC50 [µM]
1,NCCc1ccc(OC(=O)c2cc(O)c(O)c(O)c2)cc1 [GALLOYL TYRAMINE],161
2,C[C@@H]1O[C@@H](Oc2c(-c3ccc(O)c(O)c3)oc3cc(O)cc(O)c3c2=O)[C@H](O)[C@H](O)[C@H]1O [QUERCITRIN],25
